SMILES strings stand for the structures. In brackets after ≈: the same amount, converted by molar mass.

This note sets out measurements from ChEMBL document CHEMBL1146813, “Synthesis and antibacterial activity of novel bifunctional macrolides” (2004).

Type in all cases: functional
Assay [1] concerns Staphylococcus aureus. Briefly: In vitro antibacterial activity against Staphylococcus aureus NCTC 10649 (erythromycin-susceptible strain).
The test system of assay [2] is Streptococcus pneumoniae. Briefly: In vitro antibacterial activity against Streptococcus pneumoniae 5649 (efflux-resistant strain bearing a mef (E) gene).
Assay [3] concerns Streptococcus pneumoniae. Briefly: In vitro antibacterial activity against Streptococcus pneumoniae ATCC 6303 (an erythromycin-susceptible strain).
The subject of assay [4] is Staphylococcus aureus. Briefly: In vitro antibacterial activity against Staphylococcus aureus 1775 (methicillin-resistant strain(MRSA)).
The test system of assay [5] is Streptococcus pneumoniae. Nature of the assay: In vitro antibacterial activity against Streptococcus pneumoniae 5979 (MLSB resistant stain bearing an erm (B) gene).
Another assay deals with Haemophilus influenzae. Briefly: In vitro antibacterial activity against Haemophilus influenzae GYR1435 (fully susceptible strain).

Regarding `CC[C@H]1OC(=O)[C@H](C)C(=O)[C@H](C)[C@@H](O[C@@H]2O[C@H](C)C[C@H](N(C)C)[C@H]2O)[C@@](C)(OC)C[C@@H](C)/C(=N\OCCNCCCOCCCNCc2cc(Cl)cc(Cl)c2)[C@H](C)[C@@H](O)[C@]1(C)O`, the MIC in the assay with Staphylococcus aureus [1] is 1 µg/mL (≈ 1.09 µM); in the assay with Streptococcus pneumoniae [2] it was 0.015 µg/mL (≈ 0.0163 µM); with Streptococcus pneumoniae [3] it was ≤ 0.008 µg/mL; in the assay on Staphylococcus aureus [4], > 128 µg/mL; with Streptococcus pneumoniae [5] it was 4 µg/mL (≈ 4.35 µM); with Haemophilus influenzae, 8 µg/mL (≈ 8.7 µM).
Regarding `CC[C@H]1OC(=O)[C@H](C)C(=O)[C@H](C)[C@@H](O[C@@H]2O[C@H](C)C[C@H](N(C)C)[C@H]2O)[C@@](C)(OC)C[C@@H](C)/C(=N\OCCNCCCOCCCNCc2ccccc2)[C@H](C)[C@@H](O)[C@]1(C)O`, the MIC against Staphylococcus aureus [1] is 16 µg/mL (≈ 18.8 µM); with Streptococcus pneumoniae [2] it was 0.25 µg/mL (≈ 0.294 µM); in the assay on Streptococcus pneumoniae [3] it was 0.12 µg/mL (≈ 0.141 µM); with Staphylococcus aureus [4], ≥ 128 µg/mL; against Streptococcus pneumoniae [5], 1 µg/mL (≈ 1.17 µM); in the assay with Haemophilus influenzae it was 128 µg/mL (≈ 150 µM).
`CC[C@H]1OC(=O)[C@H](C)[C@@H](OC(=O)NCCCOCCCNC(=O)Cc2ccc(OC)cc2)[C@H](C)[C@@H](O[C@@H]2O[C@H](C)C[C@H](N(C)C)[C@H]2O)[C@@](C)(OC)C[C@@H](C)C(=O)[C@H](C)[C@H]2NC(=O)O[C@@]21C`: the MIC in the assay with Staphylococcus aureus [1] is 8 µg/mL (≈ 8.68 µM); against Streptococcus pneumoniae [2], 0.5 µg/mL (≈ 0.543 µM); against Streptococcus pneumoniae [3], 0.5 µg/mL (≈ 0.543 µM); with Staphylococcus aureus [4], > 128 µg/mL; with Streptococcus pneumoniae [5], > 128 µg/mL; with Haemophilus influenzae, 16 µg/mL (≈ 17.4 µM).
Consider `CC[C@H]1OC(=O)[C@H](C)C(=O)[C@H](C)[C@@H](O[C@@H]2O[C@H](C)C[C@H](N(C)C)[C@H]2O)[C@@](C)(OC)C[C@@H](C)/C(=N\OCCNCCCOCCOCCCNc2ccc(Oc3ccccc3)cc2)[C@H](C)[C@@H](O)[C@]1(C)O`, for which the MIC is 2 µg/mL (≈ 2.05 µM) in the assay with Staphylococcus aureus [1]; 1 µg/mL (≈ 1.03 µM) with Streptococcus pneumoniae [2]; 0.12 µg/mL (≈ 0.123 µM) with Streptococcus pneumoniae [3]; 128 µg/mL (≈ 132 µM) in the assay with Staphylococcus aureus [4]; 2 µg/mL (≈ 2.05 µM) in the assay with Streptococcus pneumoniae [5]; 64 µg/mL (≈ 65.8 µM) with Haemophilus influenzae.
As for `CC[C@H]1OC(=O)[C@H](C)C(=O)[C@H](C)[C@@H](O[C@@H]2O[C@H](C)C[C@H](N(C)C)[C@H]2O)[C@@](C)(OC)C[C@@H](C)/C(=N\OCCNCCCOCCOCCOCCCNc2ccc(Oc3ccccc3)cc2)[C@H](C)[C@@H](O)[C@]1(C)O`, the MIC against Staphylococcus aureus [1] is 2 µg/mL (≈ 1.97 µM); against Streptococcus pneumoniae [2], 1 µg/mL (≈ 0.983 µM); against Streptococcus pneumoniae [3] it was 0.25 µg/mL (≈ 0.246 µM); in the assay on Staphylococcus aureus [4], 128 µg/mL (≈ 126 µM); in the assay on Streptococcus pneumoniae [5], 2 µg/mL (≈ 1.97 µM); in the assay with Haemophilus influenzae it was 32 µg/mL (≈ 31.5 µM).
Take `CC[C@H]1OC(=O)[C@H](C)C(=O)[C@H](C)[C@@H](O[C@@H]2O[C@H](C)C[C@H](N(C)C)[C@H]2O)[C@@](C)(OC)C[C@@H](C)/C(=N\OCCNCCCCNCc2ccc(Oc3ccccc3)cc2)[C@H](C)[C@@H](O)[C@]1(C)O`: the MIC is 16 µg/mL (≈ 17.8 µM) in the assay on Staphylococcus aureus [1]; 0.25 µg/mL (≈ 0.278 µM) in the assay on Streptococcus pneumoniae [2]; 0.015 µg/mL (≈ 0.0167 µM) with Streptococcus pneumoniae [3]; 32 µg/mL (≈ 35.6 µM) against Staphylococcus aureus [4]; 0.5 µg/mL (≈ 0.556 µM) in the assay on Streptococcus pneumoniae [5]; 16 µg/mL (≈ 17.8 µM) in the assay with Haemophilus influenzae.
Take `C=CC(C)C(=O)NCCNC(=O)O[C@H]1[C@H](C)[C@@H](O[C@@H]2O[C@H](C)C[C@H](N(C)C)[C@H]2O)[C@@](C)(OC)C[C@@H](C)C(=O)[C@H](C)[C@H]2NC(=O)O[C@]2(C)[C@@H](CC)OC(=O)[C@@H]1C` (some centres undefined): the MIC is 64 µg/mL (≈ 81.7 µM) in the assay with Staphylococcus aureus [1]; 0.25 µg/mL (≈ 0.319 µM) against Streptococcus pneumoniae [3]; > 128 µg/mL in the assay on Staphylococcus aureus [4]; > 128 µg/mL against Streptococcus pneumoniae [5]; 128 µg/mL (≈ 163 µM) against Haemophilus influenzae.
On to `CC[C@H]1OC(=O)[C@H](C)C(=O)[C@H](C)[C@@H](O[C@@H]2O[C@H](C)C[C@H](N(C)C)[C@H]2O)[C@@](C)(OC)C[C@@H](C)/C(=N\OCCNCCCCCCNCc2ccc(OC)cc2)[C@H](C)[C@@H](O)[C@]1(C)O`, for which the MIC with Staphylococcus aureus [1] was 1 µg/mL (≈ 1.16 µM); against Streptococcus pneumoniae [2], 0.12 µg/mL (≈ 0.139 µM); against Streptococcus pneumoniae [3] it was ≤ 0.008 µg/mL; against Staphylococcus aureus [4], > 128 µg/mL; in the assay with Streptococcus pneumoniae [5], 2 µg/mL (≈ 2.31 µM); against Haemophilus influenzae, 4 µg/mL (≈ 4.62 µM).
In the case of `CC[C@H]1OC(=O)[C@H](C)C(=O)[C@H](C)[C@@H](O[C@@H]2O[C@H](C)C[C@H](N(C)C)[C@H]2O)[C@@](C)(OC)C[C@@H](C)/C(=N\OCCNCCCNCc2ccc(Oc3ccccc3)cc2)[C@H](C)[C@@H](O)[C@]1(C)O`, the MIC is 32 µg/mL (≈ 36.2 µM) in the assay on Staphylococcus aureus [1]; 1 µg/mL (≈ 1.13 µM) against Streptococcus pneumoniae [2]; 0.12 µg/mL (≈ 0.136 µM) with Streptococcus pneumoniae [3]; 64 µg/mL (≈ 72.3 µM) in the assay with Staphylococcus aureus [4]; 32 µg/mL (≈ 36.2 µM) against Streptococcus pneumoniae [5]; 13 µg/mL (≈ 14.7 µM) in the assay on Haemophilus influenzae.
Consider `CC[C@H]1OC(=O)[C@H](C)C(=O)[C@H](C)[C@@H](O[C@@H]2O[C@H](C)C[C@H](N(C)C)[C@H]2O)[C@@](C)(OC)C[C@@H](C)/C(=N\OCCNCCCCCCNCc2cccc(Oc3ccccc3)c2)[C@H](C)[C@@H](O)[C@]1(C)O`, for which the MIC with Staphylococcus aureus [1] was 2 µg/mL (≈ 2.16 µM); in the assay with Streptococcus pneumoniae [2], 0.5 µg/mL (≈ 0.539 µM); in the assay with Streptococcus pneumoniae [3], ≤ 0.008 µg/mL; in the assay on Staphylococcus aureus [4], 64 µg/mL (≈ 69 µM); with Streptococcus pneumoniae [5] it was 0.12 µg/mL (≈ 0.129 µM); in the assay on Haemophilus influenzae, 4 µg/mL (≈ 4.31 µM).
